Source: ChEMBL document CHEMBL4507269, “Data for DCP probe BAY-386” (2021)

Legend:
[1] = biological target: Somatostatin receptor type 4 (Homo sapiens) (UniProt P31391); experiment: sst4 (h) Eurofins-Cerep Cellular and Nuclear Receptor Functional Assays; details: Compound concentration 10.0 uM
[2] = biological target: Activin receptor type-2A (Homo sapiens) (UniProt P27037); details: Compound concentration 1000.0 nM
[3] = biological target: ALK tyrosine kinase receptor (Homo sapiens) (UniProt Q9UM73); details: Compound concentration 1000.0 nM
[4] = biological target: Aurora kinase B (Homo sapiens) (UniProt Q96GD4); details: Compound concentration 1000.0 nM
[5] = biological target: Tyrosine-protein kinase receptor UFO (Homo sapiens) (UniProt P30530); details: Compound concentration 1000.0 nM
[6] = biological target: Bone morphogenetic protein receptor type-1B (Homo sapiens) (UniProt O00238); details: Compound concentration 1000.0 nM
[7] = biological target: Calcium/calmodulin-dependent protein kinase type II subunit gamma (Homo sapiens) (UniProt Q13555); details: Compound concentration 1000.0 nM
[8] = biological target: Calcium/calmodulin-dependent protein kinase kinase 2 (Homo sapiens) (UniProt Q96RR4); details: Compound concentration 1000.0 nM
[9] = biological target: Cyclin-dependent kinase 3 (Homo sapiens) (UniProt Q00526); details: Compound concentration 1000.0 nM
[10] = biological target: Cyclin-dependent kinase 7 (Homo sapiens) (UniProt P50613); details: Compound concentration 1000.0 nM
[11] = biological target: Cyclin-dependent kinase-like 3 (Homo sapiens) (UniProt Q8IVW4); details: Compound concentration 1000.0 nM
[12] = biological target: Serine/threonine-protein kinase Chk2 (Homo sapiens) (UniProt O96017); details: Compound concentration 1000.0 nM
[13] = biological target: Death-associated protein kinase 2 (Homo sapiens) (UniProt Q9UIK4); details: Compound concentration 1000.0 nM
[14] = biological target: Serine/threonine-protein kinase DCLK2 (Homo sapiens) (UniProt Q8N568); details: Compound concentration 1000.0 nM
[15] = tested on: Epidermal growth factor receptor (Homo sapiens), P00533 [G719C]; details: Compound concentration 1000.0 nM
[16] = biological target: Ephrin type-B receptor 2 (Homo sapiens) (UniProt P29323); details: Compound concentration 1000.0 nM
[17] = biological target: Mitogen-activated protein kinase 15 (Homo sapiens) (UniProt Q8TD08); details: Compound concentration 1000.0 nM
[18] = biological target: Fibroblast growth factor receptor 3 (Homo sapiens) (UniProt P22607); details: Compound concentration 1000.0 nM
[19] = biological target: G protein-coupled receptor kinase 3 (Homo sapiens) (UniProt P35626); details: Compound concentration 1000.0 nM
[20] = biological target: Glycogen synthase kinase-3 beta (Homo sapiens) (UniProt P49841); details: Compound concentration 1000.0 nM
[21] = biological target: Tyrosine-protein kinase ITK/TSK (Homo sapiens) (UniProt Q08881); details: Compound concentration 1000.0 nM
[22] = biological target: Mitogen-activated protein kinase 9 (Homo sapiens) (UniProt P45984); details: Compound concentration 1000.0 nM
[23] = biological target: Mitogen-activated protein kinase 10 (Homo sapiens) (UniProt P53779); details: Compound concentration 1000.0 nM
[24] = tested on: Mast/stem cell growth factor receptor Kit (Homo sapiens), P10721 [V559D]; details: Compound concentration 1000.0 nM
[25] = biological target: Serine/threonine-protein kinase STK11 (Homo sapiens) (UniProt Q15831); details: Compound concentration 1000.0 nM
[26] = tested on: Leucine-rich repeat serine/threonine-protein kinase 2 (Homo sapiens), Q5S007 [G2019S]; details: Compound concentration 1000.0 nM
[27] = biological target: Leukocyte tyrosine kinase receptor (Homo sapiens) (UniProt P29376); details: Compound concentration 1000.0 nM
[28] = biological target: Mitogen-activated protein kinase kinase kinase 1 (Homo sapiens) (UniProt Q13233); details: Compound concentration 1000.0 nM
[29] = biological target: MAP kinase-interacting serine/threonine-protein kinase 1 (Homo sapiens) (UniProt Q9BUB5); details: Compound concentration 1000.0 nM
[30] = biological target: Mitogen-activated protein kinase kinase kinase 11 (Homo sapiens) (UniProt Q16584); details: Compound concentration 1000.0 nM
[31] = biological target: Serine/threonine-protein kinase OSR1 (Homo sapiens) (UniProt O95747); details: Compound concentration 1000.0 nM
[32] = biological target: Mitogen-activated protein kinase 14 (Homo sapiens) (UniProt Q16539); details: Compound concentration 1000.0 nM
[33] = biological target: Phosphatidylinositol 5-phosphate 4-kinase type-2 beta (Homo sapiens) (UniProt P78356); details: Compound concentration 1000.0 nM
[34] = biological target: cAMP-dependent protein kinase catalytic subunit beta (Homo sapiens) (UniProt P22694); details: Compound concentration 1000.0 nM
[35] = biological target: cGMP-dependent protein kinase 2 (Homo sapiens) (UniProt Q13237); details: Compound concentration 1000.0 nM
[36] = biological target: Interferon-induced, double-stranded RNA-activated protein kinase (Homo sapiens) (UniProt P19525); details: Compound concentration 1000.0 nM
[37] = biological target: Ribosomal protein S6 kinase alpha-6 (Homo sapiens) (UniProt Q9UK32); details: Compound concentration 1000.0 nM
[38] = biological target: Testis-specific serine/threonine-protein kinase 1 (Homo sapiens) (UniProt Q9BXA7); details: Compound concentration 1000.0 nM
[39] = biological target: Non-receptor tyrosine-protein kinase TYK2 (Homo sapiens) (UniProt P29597); details: Compound concentration 1000.0 nM
[40] = biological target: Phosphatidylinositol 3-kinase catalytic subunit type 3 (Homo sapiens) (UniProt Q8NEB9); details: Compound concentration 1000.0 nM
[41] = biological target: Wee1-like protein kinase 2 (Homo sapiens) (UniProt P0C1S8); details: Compound concentration 1000.0 nM
[42] = biological target: Serine/threonine-protein kinase WNK2 (Homo sapiens) (UniProt Q9Y3S1); details: Compound concentration 1000.0 nM
[43] = biological target: Tyrosine-protein kinase ZAP-70 (Homo sapiens) (UniProt P43403); details: Compound concentration 1000.0 nM
[44] = biological target: 5-hydroxytryptamine receptor 1D (Homo sapiens) (UniProt P28221); details: Compound concentration 10.0 uM
[45] = biological target: Mu-type opioid receptor (Homo sapiens) (UniProt P35372); details: Compound concentration 10.0 uM

Chain of Somatostatin receptor type 4 (Homo sapiens) (P31391 whole entry): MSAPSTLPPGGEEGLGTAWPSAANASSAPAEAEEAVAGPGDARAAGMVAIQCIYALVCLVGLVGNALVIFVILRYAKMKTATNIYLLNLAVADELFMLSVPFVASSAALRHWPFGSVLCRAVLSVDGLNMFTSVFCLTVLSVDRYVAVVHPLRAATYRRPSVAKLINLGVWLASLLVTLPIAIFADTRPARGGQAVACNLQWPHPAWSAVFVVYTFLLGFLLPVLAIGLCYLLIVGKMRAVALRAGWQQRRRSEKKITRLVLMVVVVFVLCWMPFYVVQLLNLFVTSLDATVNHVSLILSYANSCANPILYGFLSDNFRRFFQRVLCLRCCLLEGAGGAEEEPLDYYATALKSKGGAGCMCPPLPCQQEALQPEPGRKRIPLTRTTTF
Chain of Calcium/calmodulin-dependent protein kinase type II subunit gamma (Homo sapiens) (Q13555 whole entry): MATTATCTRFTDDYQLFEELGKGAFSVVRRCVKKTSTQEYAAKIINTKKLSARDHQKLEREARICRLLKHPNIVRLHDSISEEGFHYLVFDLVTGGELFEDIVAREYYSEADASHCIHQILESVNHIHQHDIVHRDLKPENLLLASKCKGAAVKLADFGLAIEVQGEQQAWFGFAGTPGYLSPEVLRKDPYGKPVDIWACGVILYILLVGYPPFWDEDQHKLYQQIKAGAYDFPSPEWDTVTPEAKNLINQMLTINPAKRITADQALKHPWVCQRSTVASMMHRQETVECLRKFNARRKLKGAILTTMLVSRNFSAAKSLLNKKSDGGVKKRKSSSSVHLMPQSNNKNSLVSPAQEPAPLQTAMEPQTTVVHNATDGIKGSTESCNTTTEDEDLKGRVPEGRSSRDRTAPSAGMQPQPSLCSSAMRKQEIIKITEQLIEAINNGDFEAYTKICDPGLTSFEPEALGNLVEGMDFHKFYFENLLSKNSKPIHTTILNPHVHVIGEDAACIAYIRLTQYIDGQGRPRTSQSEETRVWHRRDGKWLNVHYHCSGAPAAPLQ
Chain of Testis-specific serine/threonine-protein kinase 1 (Homo sapiens) (Q9BXA7 whole entry): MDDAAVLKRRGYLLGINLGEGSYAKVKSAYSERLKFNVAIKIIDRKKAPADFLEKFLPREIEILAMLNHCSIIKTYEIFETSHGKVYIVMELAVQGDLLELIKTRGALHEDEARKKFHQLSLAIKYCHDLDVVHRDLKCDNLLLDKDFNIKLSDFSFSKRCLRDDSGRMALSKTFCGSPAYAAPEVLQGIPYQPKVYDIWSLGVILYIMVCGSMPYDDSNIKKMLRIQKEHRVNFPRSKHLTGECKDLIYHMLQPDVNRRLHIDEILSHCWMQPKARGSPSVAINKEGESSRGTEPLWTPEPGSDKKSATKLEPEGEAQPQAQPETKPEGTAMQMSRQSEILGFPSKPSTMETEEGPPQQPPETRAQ
Chain of Wee1-like protein kinase 2 (Homo sapiens) (P0C1S8 whole entry, looked up): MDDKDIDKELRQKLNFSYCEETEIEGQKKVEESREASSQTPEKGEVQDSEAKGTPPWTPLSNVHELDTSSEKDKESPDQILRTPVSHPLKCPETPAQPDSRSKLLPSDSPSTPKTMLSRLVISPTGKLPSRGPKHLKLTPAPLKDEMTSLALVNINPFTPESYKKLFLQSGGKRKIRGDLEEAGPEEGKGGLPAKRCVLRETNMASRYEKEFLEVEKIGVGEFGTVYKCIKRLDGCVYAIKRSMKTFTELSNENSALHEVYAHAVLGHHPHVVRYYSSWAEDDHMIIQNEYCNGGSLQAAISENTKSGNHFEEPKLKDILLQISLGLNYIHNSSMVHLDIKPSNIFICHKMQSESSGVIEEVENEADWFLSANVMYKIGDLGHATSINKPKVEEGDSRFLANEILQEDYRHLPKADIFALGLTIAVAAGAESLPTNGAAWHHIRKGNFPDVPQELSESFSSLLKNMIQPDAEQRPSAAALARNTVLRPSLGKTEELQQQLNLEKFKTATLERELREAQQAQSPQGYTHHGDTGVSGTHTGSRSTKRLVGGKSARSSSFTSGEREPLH
Chain of Ephrin type-B receptor 2 (Homo sapiens) (P29323 whole entry): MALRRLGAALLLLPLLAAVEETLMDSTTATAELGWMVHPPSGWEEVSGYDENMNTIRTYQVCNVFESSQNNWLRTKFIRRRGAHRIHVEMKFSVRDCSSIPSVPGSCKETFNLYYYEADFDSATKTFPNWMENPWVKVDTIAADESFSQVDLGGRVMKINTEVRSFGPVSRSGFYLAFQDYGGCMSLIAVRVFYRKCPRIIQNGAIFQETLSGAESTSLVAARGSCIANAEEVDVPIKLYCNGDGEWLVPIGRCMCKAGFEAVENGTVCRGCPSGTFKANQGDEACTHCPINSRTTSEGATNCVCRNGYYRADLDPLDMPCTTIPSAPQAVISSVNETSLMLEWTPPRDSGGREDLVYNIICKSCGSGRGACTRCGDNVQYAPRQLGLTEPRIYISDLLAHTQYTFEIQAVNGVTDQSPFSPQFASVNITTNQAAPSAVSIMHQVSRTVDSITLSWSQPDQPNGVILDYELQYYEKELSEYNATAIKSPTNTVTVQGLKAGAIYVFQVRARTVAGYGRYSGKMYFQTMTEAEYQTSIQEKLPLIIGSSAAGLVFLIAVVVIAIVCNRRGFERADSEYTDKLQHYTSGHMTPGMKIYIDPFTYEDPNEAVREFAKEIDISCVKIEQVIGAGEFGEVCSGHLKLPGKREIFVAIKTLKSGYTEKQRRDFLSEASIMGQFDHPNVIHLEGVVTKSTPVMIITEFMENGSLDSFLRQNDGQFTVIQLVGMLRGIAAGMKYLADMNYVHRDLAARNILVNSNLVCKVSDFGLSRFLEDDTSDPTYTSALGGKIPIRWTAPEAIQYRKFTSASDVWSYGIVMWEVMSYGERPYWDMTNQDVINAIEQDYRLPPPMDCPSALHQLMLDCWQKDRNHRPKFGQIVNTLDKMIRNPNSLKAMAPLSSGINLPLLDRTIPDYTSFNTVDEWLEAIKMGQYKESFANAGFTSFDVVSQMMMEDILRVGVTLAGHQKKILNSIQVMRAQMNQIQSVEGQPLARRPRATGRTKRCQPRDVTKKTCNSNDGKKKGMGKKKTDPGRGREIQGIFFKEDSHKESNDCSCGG
Chain of G protein-coupled receptor kinase 3 (Homo sapiens) (P35626 whole entry): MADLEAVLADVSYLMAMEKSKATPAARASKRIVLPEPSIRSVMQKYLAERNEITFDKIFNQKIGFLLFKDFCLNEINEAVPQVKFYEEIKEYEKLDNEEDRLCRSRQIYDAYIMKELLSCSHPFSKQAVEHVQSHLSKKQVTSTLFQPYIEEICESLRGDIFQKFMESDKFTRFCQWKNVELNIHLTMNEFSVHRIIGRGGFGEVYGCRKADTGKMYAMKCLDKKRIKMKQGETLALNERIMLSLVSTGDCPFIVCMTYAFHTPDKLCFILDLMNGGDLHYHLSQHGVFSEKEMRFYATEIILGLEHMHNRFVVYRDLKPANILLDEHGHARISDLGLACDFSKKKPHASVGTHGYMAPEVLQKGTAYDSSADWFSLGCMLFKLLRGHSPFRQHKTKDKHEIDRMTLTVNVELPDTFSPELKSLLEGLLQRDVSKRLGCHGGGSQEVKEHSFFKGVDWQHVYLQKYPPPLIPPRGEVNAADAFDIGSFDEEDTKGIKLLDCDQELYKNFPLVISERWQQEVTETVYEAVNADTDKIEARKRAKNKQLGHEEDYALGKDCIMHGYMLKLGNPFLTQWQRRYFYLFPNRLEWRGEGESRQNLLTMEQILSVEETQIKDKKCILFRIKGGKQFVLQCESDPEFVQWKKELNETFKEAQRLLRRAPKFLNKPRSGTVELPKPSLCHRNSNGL
Chain of Phosphatidylinositol 3-kinase catalytic subunit type 3 (Homo sapiens) (Q8NEB9 whole entry): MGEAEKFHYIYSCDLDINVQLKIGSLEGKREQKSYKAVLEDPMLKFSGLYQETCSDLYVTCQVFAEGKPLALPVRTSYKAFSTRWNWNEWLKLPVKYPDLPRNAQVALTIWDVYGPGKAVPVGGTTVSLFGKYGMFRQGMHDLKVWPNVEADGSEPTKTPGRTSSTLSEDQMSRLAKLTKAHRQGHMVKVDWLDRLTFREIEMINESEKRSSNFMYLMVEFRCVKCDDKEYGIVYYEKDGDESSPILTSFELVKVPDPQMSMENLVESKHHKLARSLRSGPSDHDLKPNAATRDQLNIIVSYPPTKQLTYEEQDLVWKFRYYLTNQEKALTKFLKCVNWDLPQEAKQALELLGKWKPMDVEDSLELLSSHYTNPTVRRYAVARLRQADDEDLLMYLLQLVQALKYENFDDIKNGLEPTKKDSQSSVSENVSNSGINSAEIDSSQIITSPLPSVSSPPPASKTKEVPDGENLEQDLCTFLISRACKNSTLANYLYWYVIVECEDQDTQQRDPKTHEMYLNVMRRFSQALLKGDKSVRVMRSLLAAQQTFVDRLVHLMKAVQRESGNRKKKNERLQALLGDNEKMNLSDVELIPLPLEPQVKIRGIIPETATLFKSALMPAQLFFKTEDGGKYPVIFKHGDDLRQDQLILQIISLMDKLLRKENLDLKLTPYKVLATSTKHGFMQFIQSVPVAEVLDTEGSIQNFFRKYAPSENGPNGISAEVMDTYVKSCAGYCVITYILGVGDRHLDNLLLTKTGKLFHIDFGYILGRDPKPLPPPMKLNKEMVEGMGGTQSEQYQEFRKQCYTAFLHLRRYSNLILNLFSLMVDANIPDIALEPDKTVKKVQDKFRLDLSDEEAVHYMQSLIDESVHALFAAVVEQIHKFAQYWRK
Chain of Death-associated protein kinase 2 (Homo sapiens) (Q9UIK4 whole entry, looked up): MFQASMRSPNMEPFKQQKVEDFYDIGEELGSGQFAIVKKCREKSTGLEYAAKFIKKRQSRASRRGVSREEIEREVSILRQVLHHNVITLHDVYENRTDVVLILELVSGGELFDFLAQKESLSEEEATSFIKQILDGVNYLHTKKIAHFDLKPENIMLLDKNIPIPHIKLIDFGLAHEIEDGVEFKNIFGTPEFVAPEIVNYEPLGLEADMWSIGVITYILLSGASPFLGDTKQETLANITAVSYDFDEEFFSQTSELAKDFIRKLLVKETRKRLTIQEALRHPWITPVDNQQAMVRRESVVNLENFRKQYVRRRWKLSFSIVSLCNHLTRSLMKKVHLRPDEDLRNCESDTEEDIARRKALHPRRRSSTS

Work on `O=C(N1CCS(=O)(=O)CC1)N1C[C@H](c2ccc(OC(F)(F)F)cc2)C[C@H](c2nc(C3CC3)no2)C1` [BAY-386] yielded a % Inhibition of Control Agonist Response (Mean n=2) [1] of -3.3%, a % of Control Agonist Response (Mean n=2) [1] of -13% and a residual activity [2] of 98%. It also gave a residual activity [3] of 100%, a residual activity [4] of 100% and a residual activity [5] of 100%. It also gave a residual activity [6] of 82%, a residual activity [7] of 100% and a residual activity [8] of 100%. The residual activity [9] was 96%, the residual activity [10] was 100% and the residual activity [11] was 93%. For the same molecule, the residual activity [12] was 100%, the residual activity [13] was 100% and the residual activity [14] was 0%. For the same molecule, the residual activity [15] was 97%, the residual activity [16] was 100% and the residual activity [17] was 100%. The residual activity [18] was 100%, the residual activity [19] was 100% and the residual activity [20] was 100%. The residual activity [21] was 100%, the residual activity [22] was 84% and the residual activity [23] was 79%. For the same molecule, the residual activity [24] was 100%, the residual activity [25] was 92% and the residual activity [26] was 100%. For the same molecule, the residual activity [27] was 100%, the residual activity [28] was 100% and the residual activity [29] was 100%. It also gave a residual activity [30] of 100%, a residual activity [31] of 100% and a residual activity [32] of 100%. The residual activity [33] was 73%, the residual activity [34] was 100% and the residual activity [35] was 100%. The residual activity [36] was 100%, the residual activity [37] was 100% and the residual activity [38] was 95%. For the same molecule, the residual activity [39] was 53%, the residual activity [40] was 100% and the residual activity [41] was 100%. It also gave a residual activity [42] of 73%, a residual activity [43] of 90% and an inhibition [44] of 5.17%. For the same molecule, the inhibition [45] was -4.38%.
Molecule `Cc1noc([C@H]2C[C@@H](c3ccc(C(F)(F)F)cc3)CN(C(=O)N3CCS(=O)(=O)C3)C2)n1` [BAY-448] has a % Inhibition of Control Agonist Response (Mean n=2) [1] of 1.2%, a % of Control Agonist Response (Mean n=2) [1] of -2% and a residual activity [2] of 100%. For the same molecule, the residual activity [3] was 100%, the residual activity [4] was 100% and the residual activity [5] was 100%. It also gave a residual activity [6] of 100%, a residual activity [7] of 100% and a residual activity [8] of 100%. For the same molecule, the residual activity [9] was 100%, the residual activity [10] was 89% and the residual activity [11] was 81%. The residual activity [12] was 100%, the residual activity [13] was 100% and the residual activity [14] was 100%. It also gave a residual activity [15] of 100%, a residual activity [16] of 100% and a residual activity [17] of 100%. The residual activity [18] was 100%, the residual activity [19] was 100% and the residual activity [20] was 92%. The residual activity [21] was 100%, the residual activity [22] was 99% and the residual activity [23] was 88%. It also gave a residual activity [24] of 100%, a residual activity [25] of 100% and a residual activity [26] of 94%. For the same molecule, the residual activity [27] was 100%, the residual activity [28] was 100% and the residual activity [29] was 99%. It also gave a residual activity [30] of 86%, a residual activity [31] of 89% and a residual activity [32] of 79%. The residual activity [33] was 100%, the residual activity [34] was 100% and the residual activity [35] was 100%. For the same molecule, the residual activity [36] was 100%, the residual activity [37] was 100% and the residual activity [38] was 100%. For the same molecule, the residual activity [39] was 100%, the residual activity [40] was 90% and the residual activity [41] was 100%. For the same molecule, the residual activity [42] was 100%, the residual activity [43] was 100% and the inhibition [44] was -9.27%. The inhibition [45] was 2.23%.
